Measurements as given in paper PMC5442763, “Selective Inhibition of ADAM17 Efficiently Mediates Glycoprotein Ibα Retention During Ex Vivo Generation of Human Induced Pluripotent Stem Cell‐Derived Platelets” (Stem Cells Translational Medicine, 2016).
Peptide text beside a SMILES is read from it. * marks the point of attachment. Cbz = O=C(OCc1ccccc1)*; CH2F = FC*

How the values were obtained:
[1] = tested on: human washed platelets; assay: CCCP-induced GPIbα shedding from washed platelets; assay type: cell-based; settings: relative to maximum inhibition elicited by KP-457 or GM-6001
Method: (§1) Flow cytometric analysis was performed as previously described. Briefly, iPSC‐ and ESC‐derived MKs on days 22–24 and platelets in their supernatants were stained with combinations of antibodies for 30 minutes on ice (for MKs) or at room temperature (for platelets). Samples of MKs/platelets were then washed, diluted with staining medium (phosphate‐buffered saline containing 3% fetal bovine serum), and analyzed using flow cytometry (FACSAria; BD). Trucount tubes (BD) were used to quantify the MKs and platelets.
Washed platelets were prepared as described elsewhere.

[2] = tested on: platelet aggregation; assay: Platelet aggregation induced by thrombin or collagen; assay type: cell-based
[3] = tested on: human iPSC-derived MKs and platelets; assay: Generation of MKs and platelets from human iPSC-derived HPCs at 37°C, flow cytometry; assay type: cell-based; settings: for number of CD41a+ total iPSC platelets / retention of GPIbα expression on CD41a+ iPSC-derived platelets / number of CD41a+ iPSC-derived MKs: KP-457 15 μmol/l, GM-6001 50 μmol/l, p38 MAP kinase inhibitor 10 μmol/l; for number of CD41a+ iPSC-derived MKs: MK differentiation and platelet production phases; for GPIbα retention by iPSC-derived platelets, inhibitor only during platelet production phase: days 21–23 or 24, KP-457 15, BIRB796 10, U0126 10, BMS345541 10, Z-VAD 10, Ro31-8220 3 μmol/l
Method: Directed differentiation to MKs and platelets from iPSCs and ESCs was performed as described previously. Briefly, 3 × 10^4 HPCs derived from iPS‐sacs on C3H10T1/2 feeder cells in the presence of 20 ng/ml vascular endothelial growth factor were transferred on day 14 of culture onto C3H10T1/2 feeder cells in differentiation medium supplemented with 50 ng/ml stem cell factor, 100 ng/ml thrombopoietin, 25 U/ml heparin sodium, and test compounds at 24°C or 37°C. The medium was refreshed every 3 days, and nonadherent cells were collected and analyzed on days 22–24.
as §1

[4] = target: T1, Human ADAM17 (Homo sapiens, UniProt P78536); assay: MMP and ADAM activity assay (fluorescence-based, cell-free): ADAM17; assay type: biochemical; settings: cell-free fluorescence assay, TNF-α cleavage site substrate
T1 construct: purchased R&D Systems
Description: (§2) Human ADAM17, ADAM10, and MMP17 were from R&D Systems (Minneapolis, MN, http://www.rndsystems.com), and human MMP1, MMP2, MMP3, MMP8, MMP9, MMP13, and MMP14 were from EMD Millipore. MMP1, MMP2, MMP8, MMP9, MMP13, and MMP17 were activated using p‐aminophenylmercuric acetate (Sigma‐Aldrich) before testing. Fluorogenic substrates for measuring activity of ADAM10 and ADAM17 [Nma‐[…](Dnp)r‐NH2, based on the cleavage site of TNF‐α]; MMP1, MMP9, MMP13, and MMP14 [Dnp‐P‐Cha‐GC(Me)HAK(N‐Me‐Abz)‐NH2]; MMP3 [MOCAc‐RPKPVE‐Nva‐WRK(Dnp)‐NH2]; and MMP2, MMP8, and MMP17 [MOCAc‐PLGL‐A2pr(Dnp)‐AR‐NH2] were all provided by Peptide Institute (Osaka, Japan, https://www.peptide.co.jp/en) and used as substrates. In addition, inhibitory activities were measured using LC/MS/MS with a GPIbα‐based substrate peptide ([…]), a C terminal‐based standard peptide ([…]), and an internal standard peptide ([…]). These peptides were synthetized by Scrum (Tokyo, Japan, http://www.scrum‐net.co.jp/english/top_en.htm).

[5] = target: T2, human ADAM10 (Homo sapiens, UniProt O14672); assay: MMP and ADAM activity assay (fluorescence-based): ADAM10; assay type: biochemical; settings: cell-free fluorescence assay
T2 construct: purchased R&D Systems
Method: as §2, with “KP‐457 and GM‐6001 were tested for their ability to inhibit MMP‐ and ADAM‐catalyzed cleavage of substrates in a fluorescence‐based assay. Human” for “Human”

[6] = target: T3, human MMP3 (Homo sapiens, UniProt P08254); assay: MMP and ADAM activity assay (fluorescence-based): MMP3; assay type: biochemical; settings: cell-free fluorescence assay
T3 construct: purchased EMD Millipore
Method: as §2, with “KP‐457 and GM‐6001 were tested for their ability to inhibit MMP‐ and ADAM‐catalyzed cleavage of substrates in a fluorescence‐based assay. Human” for “Human”

[7] = target: T4, human MMP13 (Homo sapiens, UniProt P45452); assay: MMP and ADAM activity assay (fluorescence-based): MMP13; assay type: biochemical; settings: cell-free fluorescence assay
T4 construct: purchased EMD Millipore
Description: as §2

[8] = target: T5, human MMP14 (Homo sapiens, UniProt P50281); assay: MMP and ADAM activity assay (fluorescence-based): MMP14; assay type: biochemical; settings: cell-free fluorescence assay
T5 construct: purchased EMD Millipore
Method: as §2, with “KP‐457 and GM‐6001 were tested for their ability to inhibit MMP‐ and ADAM‐catalyzed cleavage of substrates in a fluorescence‐based assay. Human” for “Human”

[9] = target: T6, human MMP17 (Homo sapiens, UniProt Q9ULZ9); assay: MMP and ADAM activity assay (fluorescence-based): MMP17; assay type: biochemical; settings: cell-free fluorescence assay
T6 construct: purchased R&D Systems
Method: as §2, with “KP‐457 and GM‐6001 were tested for their ability to inhibit MMP‐ and ADAM‐catalyzed cleavage of substrates in a fluorescence‐based assay. Human” for “Human”

[10] = target: T1, Human ADAM17; assay: Cleavage of GPIbα-based substrate peptide by ADAM17 (LC/MS/MS); assay type: biochemical; settings: read-out: IC50, inhibition of C-terminal cleavage of the GPIbα sequence by ADAM17
Description: as §2
(1 picture or pasted object on this page, not shown here)

[11] = tested on: mouse ESC-derived platelets; design: method as in PMID 18663123; settings: 100 µmol/l; cited from earlier work
[12] = tested on: ADAM17; design: method as in PMID 25049354; settings: cited from earlier work
[13] = tested on: mouse platelets; design: method as in PMID 23801636; settings: cited from earlier work

T1 sequence (P78536 215-824): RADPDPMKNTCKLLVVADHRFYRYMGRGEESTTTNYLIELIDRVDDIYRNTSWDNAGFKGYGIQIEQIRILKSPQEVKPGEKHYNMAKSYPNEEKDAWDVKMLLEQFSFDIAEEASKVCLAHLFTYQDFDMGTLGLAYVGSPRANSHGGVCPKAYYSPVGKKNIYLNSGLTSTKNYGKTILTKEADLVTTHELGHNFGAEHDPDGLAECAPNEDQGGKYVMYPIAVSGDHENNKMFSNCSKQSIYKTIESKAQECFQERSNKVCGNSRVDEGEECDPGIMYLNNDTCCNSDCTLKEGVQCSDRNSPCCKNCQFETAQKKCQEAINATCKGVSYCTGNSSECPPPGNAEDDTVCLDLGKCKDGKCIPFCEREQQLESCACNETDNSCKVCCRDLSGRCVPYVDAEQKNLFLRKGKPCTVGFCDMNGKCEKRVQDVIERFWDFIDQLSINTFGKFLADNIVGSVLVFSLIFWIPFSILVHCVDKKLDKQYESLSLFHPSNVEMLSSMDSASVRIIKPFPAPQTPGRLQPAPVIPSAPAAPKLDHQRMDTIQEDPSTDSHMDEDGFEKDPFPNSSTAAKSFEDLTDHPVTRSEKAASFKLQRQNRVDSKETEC
T2 sequence (O14672 214-748): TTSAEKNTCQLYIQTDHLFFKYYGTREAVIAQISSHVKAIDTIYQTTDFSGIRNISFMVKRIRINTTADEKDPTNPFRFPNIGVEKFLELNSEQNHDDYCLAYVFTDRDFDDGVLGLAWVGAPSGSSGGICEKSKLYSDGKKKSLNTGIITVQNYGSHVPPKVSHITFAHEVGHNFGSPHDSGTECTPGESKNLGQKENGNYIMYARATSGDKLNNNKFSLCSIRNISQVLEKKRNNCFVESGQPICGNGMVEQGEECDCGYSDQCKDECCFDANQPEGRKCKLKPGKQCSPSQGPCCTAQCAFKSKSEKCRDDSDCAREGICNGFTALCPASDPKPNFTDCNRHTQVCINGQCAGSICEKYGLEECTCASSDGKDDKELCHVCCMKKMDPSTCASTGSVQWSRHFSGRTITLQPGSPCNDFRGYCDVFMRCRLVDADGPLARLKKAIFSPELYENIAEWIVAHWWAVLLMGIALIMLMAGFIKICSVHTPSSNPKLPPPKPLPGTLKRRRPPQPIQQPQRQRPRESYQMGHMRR
T3 sequence (P08254 100-477): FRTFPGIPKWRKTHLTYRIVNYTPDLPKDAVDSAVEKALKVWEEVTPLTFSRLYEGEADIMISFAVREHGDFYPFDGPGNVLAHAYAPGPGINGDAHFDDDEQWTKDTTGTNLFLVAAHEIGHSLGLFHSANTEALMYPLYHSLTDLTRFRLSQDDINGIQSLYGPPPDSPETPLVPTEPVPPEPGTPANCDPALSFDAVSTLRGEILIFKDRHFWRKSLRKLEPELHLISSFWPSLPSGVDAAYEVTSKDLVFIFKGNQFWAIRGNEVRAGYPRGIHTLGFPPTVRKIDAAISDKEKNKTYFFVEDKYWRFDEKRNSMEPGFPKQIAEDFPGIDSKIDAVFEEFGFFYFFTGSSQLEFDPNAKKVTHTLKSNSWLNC
T6 sequence (Q9ULZ9 126-565 limits assumed): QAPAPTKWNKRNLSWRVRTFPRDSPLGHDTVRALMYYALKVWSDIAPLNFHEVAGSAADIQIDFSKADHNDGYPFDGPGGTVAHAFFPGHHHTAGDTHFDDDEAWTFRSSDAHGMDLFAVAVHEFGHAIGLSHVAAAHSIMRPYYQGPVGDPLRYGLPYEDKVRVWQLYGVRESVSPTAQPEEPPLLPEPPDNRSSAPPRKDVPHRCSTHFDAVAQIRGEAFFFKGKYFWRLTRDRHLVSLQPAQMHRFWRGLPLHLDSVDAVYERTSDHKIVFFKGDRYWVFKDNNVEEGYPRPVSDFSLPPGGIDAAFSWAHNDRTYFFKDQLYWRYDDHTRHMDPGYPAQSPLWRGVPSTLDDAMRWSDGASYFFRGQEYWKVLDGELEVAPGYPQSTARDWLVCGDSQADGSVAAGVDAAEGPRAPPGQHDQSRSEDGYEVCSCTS

Compound: Cc1ccc(-n2nc(C(C)(C)C)cc2NC(=O)Nc2ccc(OCCN3CCOCC3)c3ccccc23)cc1 [BIRB796]
- plateau of the inhibitory effect on CCCP-induced GPIbα shedding [1]: around half the maximum inhibition
- effect on collagen-induced platelet aggregation [2]: diminished
- GPIbα+ population in human iPSC-derived CD41a+ platelets ([3]; BIRB796 10 μmol/l, representative FACS plot, vehicle 48.3%): 48.0%
- number of CD41a+ total iPSC platelets [3]: increased
- retention of GPIbα expression on CD41a+ iPSC-derived platelets [3]: failed to preserve
- number of CD41a+ iPSC-derived MKs [3]: increased
- GPIbα retention by iPSC-derived platelets, inhibitor only during platelet production phase [3]: failed to prevent

Compound: Cc1ccc2nc(NCCN)c3ncc(C)n3c2c1 [BMS345541]
- GPIbα retention by iPSC-derived platelets, inhibitor only during platelet production phase [3]: failed to prevent

Compound: CNC(=O)[C@H](Cc1c[nH]c2ccccc12)NC(=O)[C@@H](CC(=O)NO)CC(C)C [GM-6001]
- IC50 [4]: 163 nM
- IC50 [5]: 642 nM
- IC50 [6]: 79.8 nM
- IC50 [7]: 0.435 nM
- IC50 [8]: 2.96 nM
- IC50 [9]: 5.16 nM
- IC50 [10]: 53.8 nM
- number of CD41a+ total iPSC platelets [3]: no significant effect
- retention of GPIbα expression on CD41a+ iPSC-derived platelets [3]: able to retain
- number of CD41a+ iPSC-derived MKs [3]: no significant effect
- GPVI shedding during platelet generation from mouse ESCs [11]: partially inhibited

Compound: COc1ccc(S(=O)(=O)N2Cc3ccccc3C[C@@H]2C(=O)NO)cc1 [M8I]
- ADAM17 inhibition [12]: potently inhibits ADAM17

Compound: Cn1cc(C2=C(c3cn(CCCSC(=N)N)c4ccccc34)C(=O)NC2=O)c2ccccc21 [Ro31‐8220]
- GPIbα retention by iPSC-derived platelets, inhibitor only during platelet production phase [3]: failed to prevent

Compound: C[S+]([O-])c1ccc(-c2nc(-c3ccncc3)c(-c3ccc(F)cc3)[nH]2)cc1 (centres unmarked) [SB203580]
- plateau of the inhibitory effect on CCCP-induced GPIbα shedding [1]: around half the maximum inhibition
- effect on collagen-induced platelet aggregation [2]: diminished
- number of CD41a+ total iPSC platelets [3]: increased
- retention of GPIbα expression on CD41a+ iPSC-derived platelets [3]: failed to preserve
- number of CD41a+ iPSC-derived MKs [3]: increased
- suppression of thrombin-induced GPIbα shedding from mouse platelets compared with GM-6001 [13]: less effectively

Compound: N#CC(=C(/N)Sc1ccccc1N)/C(C#N)=C(/N)Sc1ccccc1N [U0126]
- GPIbα retention by iPSC-derived platelets, inhibitor only during platelet production phase [3]: failed to prevent

Compound: CC(NC(=O)C(NC(=O)OCc1ccccc1)C(C)C)C(=O)NC(CC(=O)O)C(=O)CF (stereo not drawn) [Z‐VAD] (Cbz-Val-Ala-Asp-CH2F; configuration not given here)
- GPIbα retention by iPSC-derived platelets, inhibitor only during platelet production phase [3]: failed to prevent
